# Patent publication US20150250882A1, “Fatty Acid Acylated Amino Acids for Growth Hormone Delivery” (Novo Nordisk Health Care AG, priority 2012, published 2015)
# Experiments:
# [1] = Intra intestinal (mid-jejunum) administration of GH compounds with FA-aa to rats, AUC enhancement; type: in vivo, Sprague-Dawley rats; details: SBTI 2% with C16-sarcosinate 30 mg/ml, FIGS. 5, 6 and 7
# Method: Each composition is prepared as a 100 pl dosage injected into mid-jejenum of fully anaesthetized overnight fasted Sprague-Dawley rats (n=6, 9 or 18).
# At each sampling time 0.25 ml blood is drawn from the tail vein using a 25 G needle. Sampling times are: pre-dose and 0.25, 0.5, 1, 2, 4 and 6 hours after dosing. The blood is sampled into a EDTA coated test tube and stored on ice until centrifugation at 1200×G for 10 min at 4° C. Plasma is transferred to a Micronic tube and stored at −20° C. until analysis.
# The limit of detection of the assay was 0.2 nM.
# The samples were analysed using a Luminescence Oxygen Channeling Immunoassay (LOCI), a homogenous bead based assay. […] One of the bead reagents is a generic reagent (donor beads) and is coated with streptavidin and contains a photosensitive dye. The second bead reagent (acceptor beads) is coated with an antibody making up the sandwich. […] Illumination of the complex releases singlet oxygen from the donor beads which channels into the acceptor beads and triggers chemiluminescence which is measured in the EnVision plate reader. […]
# [2] = system: HT29-MTX (E12) cells; assay: Transepithelial transport of GH compounds across E12 cell monolayers (Papp); type: in vitro ADME; details: for Fold increase (Papp of GH A2 + FA-aa relative to GH A2 alone): GH-A2, same procedure: 0.5 mM FA-aa, transport buffer pH 7.4; for effect on permeation / trans-epithelia transport of the growth hormone compounds (in words): GH-A1 and GH-A2; for effect on GH A1 transport (in words): based on fold increase relative to GH A1 alone; for effect on the transportation of GH A2 (in words): fold increase relative to GH A2 alone
# Method: HT29-MTX (E12) cells (Pharm Res. 2001; 18(8):1138-45 and Pharm Res. 2007; 24(7):1346-56) were grown in Dulbecco's Modified Eagle Medium supplemented with 10% foetal bovine serum (FBS), 1% penicillin/streptomycin, 1% L-glutamine and 1% non-essential amino acids. For the transport assay, E12 cells were seeded onto tissue culture treated polycarbonate filters in 12-well Transwell® plates (1.13 cm2, 0.4 μm pore size) at a density of 10^5 cells per well. Cells were cultured at 37° C. in an atmosphere of 5% CO2 and the culture media was exchange every second day. Transport experiments were performed after 14-18 days in culture.
# The amount of GH compound transported from the donor chamber (apical side) to the receiver chamber (basolateral side) was measured.
# Before the experiment, the E12 cells are equilibrated for 60 min with transport buffer on both sides of the epithelium. Buffer is then removed and the experiment initiated by adding a test solution to the donor chamber and a corresponding transport buffer to the receiver chamber. Donor samples ([…]) are taken at 0 min and at the end of the experiment. Receiver samples ([…]) are taken at regular intervals such as every 15 min. The study is usually performed in an atmosphere of 5% CO2-95% O2 at 37° C. on a shaking plate (30 rpm).
# Transport of [3H]mannitol, a marker for paracellular transport, may be measured, to verify the integrity of the epithelium, using a scintillation counter.
# Before and during the experiment the transepithelial electrical resistance (TEER) of the cell monolayers is monitored. The TEER is measured with EVOM™ Epithelial Voltohmmeter connected to Chopsticks.
# The transport study was performed as described in General Method D (Example 1). […] […] The permeation (Papp) of a Growth hormone compound in the presence of different FA-aa's was measured and the fold increase (or decrease) compared to the Growth hormone compound alone was calculated.
# [3] = Pharmacokinetics (T½) of growth hormone compounds in rats after i.v./s.c. single dose; type: in vivo, Sprague Dawley rats; details: assay of Example 1.C (i.v. or s.c.)
# Method: The pharmacokinetic of the compounds of the examples is investigated in male Sprague Dawley rats after intravenous (i.v.) and subcutaneous (s.c.) single dose administration.
# Test compounds are diluted to a final concentration of 1 mg/mL in a dilution buffer consisting of: Glycine 20 mg/mL, mannitol 2 mg/mL, NaHCO3 2.5 mg/mL, pH adjusted to 8.2.
# The test compounds are studied in male Sprague Dawley rats weighing 250 g. The test compounds are administered as a single injection either i.v. in the tail vein or s.c. in the neck with a 25 G needle at a predetermined dose such as of 15 nmol/rat in volume of 0.1 ml (concentration 150 nmol/ml) or 60 nmol/kg body weight. […]
# At each sampling time 0.25 ml blood is drawn from the tail vein using a 25 G needle. The blood is sampled into a EDTA coated test tube and stored on ice until centrifugation at 1200×G for 10 min at 4° C. […]
# Test compound concentrations are determined by a sandwich ELISA using a guinea pig anti-hGH polyclonal antibody as catcher, and biotinylated hGH binding-protein (soluble part of human GH receptor) as detector. […]
# A non-compartmental pharmacokinetic analysis is performed on mean concentration-time profiles of each test compound using WinNonlin Professional (Pharsight Inc., Mountain View, Calif., USA). The pharmacokinetic parameter estimates of terminal half-life (t1/2) and mean residence time (MRT) are calculated.
molecule,measurement,setting,value
"CCCCCCCCCCCCCCCC(=O)N(C)CC(=O)[O-].[Na+] [C16-Sarc, sodium 2-[hexadecanoyl(methyl)amino]acetate]",effect of protease inhibitor on GH absorption enhancing effect of FA-aa (in words),[1],significantly improved by the presence of an enzyme inhibitor
CCCCCCCCCCCCCCCC(=O)NC(CC(=O)O)C(=O)O (stereo not drawn) [C16-(D)-Asp],Fold increase (Papp of GH A2 + FA-aa relative to GH A2 alone),[2],1.8 fold
"CCCCCCCCCCCCCCCC(=O)N[C@@H](CCC(=O)[O-])C(=O)[O-].[Na+].[Na+] [C16-Glu, disodium (2S)-2-(hexadecanoylamino)pentanedioate]",effect on permeation / trans-epithelia transport of the growth hormone compounds (in words),[2],superior effect
same,effect on GH A1 transport (in words),[2],biggest effect
same,effect on the transportation of GH A2 (in words),[2],biggest effect
"CCCCCCCCCC(=O)N(C)CC(=O)O [C10-Sarc, N-decanoyl-L-sarcosine]",Fold increase (Papp of GH A2 + FA-aa relative to GH A2 alone),[2],0.7 fold
CCCCCCCCCCCCCCCC(=O)NC(CCC(=O)O)C(=O)O [C16-D-Glu],Fold increase (Papp of GH A2 + FA-aa relative to GH A2 alone),[2],4.1 fold
"CCCCCCCCCCCC(=O)NCC(=O)O [C12-Gly, N-dodecanoyl-L-glycine]",Fold increase (Papp of GH A2 + FA-aa relative to GH A2 alone),[2],3.4 fold
"CCCCCCCCCCCCCCCC(=O)N[C@@H](CCC(N)=O)C(=O)[O-].[Na+] [C16-Gln, sodium (2S)-5-amino-5-oxo-2-(hexadecanoylamino)pentanoate]",effect on permeation / trans-epithelia transport of the growth hormone compounds (in words),[2],superior effect
same,effect on GH A1 transport (in words),[2],biggest effect
same,effect on the transportation of GH A2 (in words),[2],biggest effect
wt human growth hormone: human growth hormone identified by SEQ ID NO 1,T ½,[3],12 to 14 min
